What was measured:
Format in all cases: in vivo
[1] = system: Alopecurus myosuroides (ALOMY); test: Example B pre-emergence herbicidal activity; settings: 312 h, rate 250 g/ha, evaluated after 13 days, read-out: Pre-Emergence Activity ALOMY (100=total damage to plant; 0=no damage to plant)
Procedure, shortened: (§1)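 Glasshouse pot test, 24/16 °C, 14 h light, 65% RH, watered twice daily. Spray timing: day 1 pre-em., day 8 post-em.; vehicle acetone/water 50:50 + 0.5% Tween 20. Readout 13 d, 0–100% damage.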

[2] = system: Amaranthus retoflexus (AMARE); test: Example B pre-emergence herbicidal activity; settings: Amaranthus retroflexus, 312 h, rate 250 g/ha, evaluated after 13 days, read-out: Pre-Emergence Activity AMARE (100=total damage to plant; 0=no damage to plant)
Procedure, shortened: as §1

[3] = system: Avena fatua (AVEFA); test: Example B pre-emergence herbicidal activity; settings: 312 h, rate 250 g/ha, evaluated after 13 days, read-out: Pre-Emergence Activity AVEFA (100=total damage to plant; 0=no damage to plant)
Procedure, shortened: as §1

[4] = system: Echinochloa crus-galli (ECHCG); test: Example B pre-emergence herbicidal activity; settings: 312 h, rate 250 g/ha, evaluated after 13 days, read-out: Pre-Emergence Activity ECHCG (100=total damage to plant; 0=no damage to plant)
Procedure, shortened: as §1

[5] = system: Setaria faberi (SETFA); test: Example B pre-emergence herbicidal activity; settings: 312 h, rate 250 g/ha, evaluated after 13 days, read-out: Pre-Emergence Activity SETFA (100=total damage to plant; 0=no damage to plant)
Procedure, shortened: as §1

[6] = system: Alopecurus myosuroides (ALOMY); test: Example B post-emergence herbicidal activity; settings: 312 h, rate 250 g/ha, evaluated after 13 days, read-out: Post-emergence activity ALOMY (100=total damage to plant; 0=no damage to plant)
Procedure, shortened: as §1

[7] = system: Amaranthus retoflexus (AMARE); test: Example B post-emergence herbicidal activity; settings: Amaranthus retroflexus, 312 h, rate 250 g/ha, evaluated after 13 days, read-out: Post-emergence activity AMARE (100=total damage to plant; 0=no damage to plant)
Procedure, shortened: as §1

[8] = system: Avena fatua (AVEFA); test: Example B post-emergence herbicidal activity; settings: 312 h, rate 250 g/ha, evaluated after 13 days, read-out: Post-emergence activity AVEFA (100=total damage to plant; 0=no damage to plant)
Procedure, shortened: as §1

[9] = system: Echinochloa crus-galli (ECHCG); test: Example B post-emergence herbicidal activity; settings: 312 h, rate 250 g/ha, evaluated after 13 days, read-out: Post-emergence activity ECHCG (100=total damage to plant; 0=no damage to plant)
Procedure, shortened: as §1

[10] = system: Setaria faberi (SETFA); test: Example B post-emergence herbicidal activity; settings: 312 h, rate 250 g/ha, evaluated after 13 days, read-out: Post-emergence activity SETFA (100=total damage to plant; 0=no damage to plant)
Procedure, shortened: as §1

SMILES | pest or weed control at 250 g/ha [1] | pest or weed control at 250 g/ha [2] | pest or weed control at 250 g/ha [3] | pest or weed control at 250 g/ha [4] | pest or weed control at 250 g/ha [5] | pest or weed control at 250 g/ha [6] | pest or weed control at 250 g/ha [7] | pest or weed control at 250 g/ha [8] | pest or weed control at 250 g/ha [9] | pest or weed control at 250 g/ha [10]
Cc1sc(-c2ccc(F)cc2)nc1C1C(=O)[C@@H]2CC[C@@H](C2)C1=O (some centres unmarked) [Compound T57] | 60% | 0% | 20% | 90% | 90% | 70% | 0% | 60% | 100% | 100%
CCc1sc(-c2c(C)cc(Cl)cc2F)nc1C1C(=O)[C@@H]2CC[C@@H](C2)C1=O (some centres unmarked) [Compound T45] | 90% | 0% | 30% | 100% | 100% | 100% | 0% | 100% | 100% | 100%
CC(=O)OC1=C(c2nc(-c3ccc(Cl)cc3)ncc2C)C(=O)[C@@H]2C[C@H]1C2(C)C [Compound P19] | 10% | 0% | 0% | 20% | 90% | 20% | 0% | 0% | 90% | 90%
CCOc1ccc(-c2nc(C3C(=O)[C@@H]4CC[C@@H](C4)C3=O)c(C)s2)cc1F (some centres unmarked) [Compound T77] | 0% | 50% | 0% | 0% | 0% | 0% | 0% | 0% | 60% | 70%
CCc1sc(-c2ccc(Cl)c(C)c2)nc1C1C(=O)[C@@H]2CC[C@@H](C2)C1=O (some centres unmarked) [Compound T20] | 50% | 0% | 0% | 70% | 40% | 90% | 0% | 90% | 100% | 90%
Cc1sc(-c2ccc([S+](C)[O-])cc2)nc1C1C(=O)[C@@H]2CC[C@@H](C2)C1=O (some centres unmarked) [Compound T82] | 0% | 0% | 0% | 40% | 80% | 20% | 30% | 0% | 100% | 100%
Cc1sc(-c2cccs2)nc1C1C(=O)[C@@H]2CC[C@@H](C2)C1=O (some centres unmarked) [Compound T2] | 0% | 0% | 0% | 0% | 50% | 0% | 0% | 0% | 30% | 70%
Cc1sc(-c2ccc(Br)cn2)nc1C1=C(OC(=O)C(C)(C)C)[C@@H]2CC[C@@H](C2)C1=O [Compound P8] | 20% | 0% | 0% | 50% | 100% | 70% | 0% | 80% | 0% | 100%
Cc1sc(-c2ccc(OC(F)(F)F)cc2)nc1C1C(=O)[C@@H]2CC[C@@H](C2)C1=O (some centres unmarked) [Compound T5, 3-[5-methyl-2-(4-trifluoromethoxyphenyl)thiazol-4-yl]bicyclo[3.2.1]octane-2,4-dione] | 50% | 0% | 0% | 80% | 90% | 70% | 0% | 0% | 100% | 100%
CCc1sc(-c2ccc(C(F)(F)F)cc2)nc1C1C(=O)[C@@H]2CC[C@@H](C2)C1=O (some centres unmarked) [Compound T96] | 80% | 0% | 100% | 100% | 100% | 100% | 30% | 100% | 100% | 100%
O=C1C(c2nc(-c3ccc(Br)cc3)sc2CC(F)(F)F)C(=O)[C@H]2CC[C@@H]1C2 (some centres unmarked) [Compound T40] | 100% | 0% | 100% | 100% | 100% | 100% | 0% | 100% | 100% | 100%
Cc1ccc(-c2nc(C3C(=O)[C@@H]4CC[C@@H](C4)C3=O)c(C)s2)cc1Cl (some centres unmarked) [Compound T10] | 20% | 0% | 0% | 60% | 20% | 20% | 0% | 0% | 70% | 70%
Cc1sc(-c2ccc(Br)cn2)nc1C1=C(OC(=O)C2CC2)[C@@H]2CC[C@@H](C2)C1=O [Compound P7] | 30% | 0% | 0% | 20% | 90% | 90% | 0% | 90% | 100% | 100%
Cc1sc(-c2ccc(C(F)(F)F)cc2)nc1C1C(=O)[C@@H]2CC[C@@H](C2)C1=O (some centres unmarked) [Compound T59] | 80% | 0% | 70% | 90% | 100% | 100% | 0% | 80% | 100% | 100%
Cc1sc(-c2ccc(Cl)cc2Cl)nc1C1C(=O)[C@@H]2CC[C@@H](C2)C1=O (some centres unmarked) [Compound T3] | 60% | 0% | 0% | 80% | 90% | 90% | 0% | 60% | 100% | 100%
Cc1sc(-c2ccc(F)cc2F)nc1C1C(=O)[C@@H]2CC[C@@H](C2)C1=O (some centres unmarked) [Compound T70] | 70% | 100% | 30% | 60% | 100% | 90% | 40% | 50% | 100% | 100%
CCc1sc(-c2ccccc2Cl)nc1C1C(=O)[C@@H]2CC[C@@H](C2)C1=O (some centres unmarked) [Compound T106] | 0% | 0% | 0% | 10% | 20% | 10% | 0% | 0% | 30% | 70%

From patent US8598365B2, “Herbicides” (Syngenta Limited, priority 2007, dated 2013)
